For data set [1], the target named is T1, human melatonin 2 receptors (human MT2 receptors) (Homo sapiens, UniProt P49286).
T1 construct: expressed in transfected cells; membrane fraction
T1 sequence (P49286 1-362): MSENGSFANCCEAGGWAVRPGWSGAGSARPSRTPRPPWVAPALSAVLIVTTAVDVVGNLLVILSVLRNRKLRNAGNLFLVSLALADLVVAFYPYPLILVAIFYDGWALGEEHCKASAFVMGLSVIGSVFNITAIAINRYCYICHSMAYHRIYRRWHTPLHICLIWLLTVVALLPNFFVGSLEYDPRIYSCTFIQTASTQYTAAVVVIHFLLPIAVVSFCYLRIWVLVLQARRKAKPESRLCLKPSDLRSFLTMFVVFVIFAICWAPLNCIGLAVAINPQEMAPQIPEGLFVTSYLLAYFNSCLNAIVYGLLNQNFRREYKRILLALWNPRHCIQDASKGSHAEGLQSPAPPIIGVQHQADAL
Put plainly: Melatonin receptor binding inhibitory test, 2-[125I] Iodomelatonin, MT2. As to conditions: membrane fraction of CHO-hMT2 cells, 25° C. for 2.5 hr, read-out: binding inhibitory activity as IC50 value for MT2. The protocol: (§1) Melatonin Receptor Binding Inhibitory Test
(2) Preparation of CHO-hMT2 Cells Expressing Human Melatonin 2 Receptors
A cDNA fragment (SEQ ID NO: 2) encoding full-length of human melatonin 2 receptors (human MT2 receptors) was incorporated into expression vector pCMV-Script (Stratagene, #212220) to give the plasmid that was pCMV-human MT2 receptors expression vector for animal cell expression. CHO-K1 cells (ATCC, #CCL-61) were plated at the concentration of 1.5×10^5 cells/cm^2 in a 6 well plate (ASAHI TECHNO GLASS), and cultured under the conditions of 37° C., 5% CO2 for 24 hr. For gene transfection, solution obtained by blending pCMV-human MT2 receptors expression vector (1.9 μg), Lipofectamine Transfection Reagent (Invitrogen, #18324-012) (11.3 μL) and Minimum Essential Medium Eagle (MEM) medium (Sigma, M8042) (93.8 μL), and reacting at room temperature for 20 min was added to the cells per one well. The transfected cells were cultured in MEM medium containing 10% FBS (Life Technology) and 300 μg/mL Geneticin (GIBCO, #10131), and the cell line that stably expressed the plasmid gene was selected. By a receptor binding assay using 2-[^125I] Iodomelatonin, CHO-hMT2 cell line showing specific binding of 2-[^125I] Iodomelatonin was selected from the obtained clones.
(§2) (3) Preparation of Cellular Membrane Fraction of CHO Cell (CHO-hMelR7 and CHO-hMT2) Stably Expressing Human MT1 and MT2 Receptors
(§3) CHO-hMelR7 and CHO-hMT2 cells were plated using Cellfactory (Nunc, #170009) under the conditions of 1×10^8 cells/2000 mL/flask. The cells were grown to confluent, and recovered by the following method. As the medium for CHO-hMelR7 and CHO-hMT2, MEM a containing 10% FBS and penicillin/streptomycin was used. […]
(§4) The medium was discarded, cells were washed twice with 200 mL of EDTA/PBS(−), 200 mL of EDTA/PBS(−) was further added, and the cells were stood still at room temperature for 20 min until they were released. The cells were recovered in four 50 mL tubes (Becton Dickinson, #352070), and centrifuged at 1,500 rpm for 10 min at 4° C. using a low speed cooling centrifuge (Hitachi, CF7D2). The supernatant was discarded, the pellets in the four tubes were suspended in 10 mL of PBS(−), and combined in one tube (Becton Dickinson, #352070). The mixture was further centrifuged at 1,500 rpm for 10 min at 4° C., and the obtained pellets were suspended in 20 mL of ice-cooled homogenizing buffer [10 mM NaHCO3, 5 mM EDTA, Protease inhibitor Complete (Roche), pH 7.4]. The cell suspension was homogenized 3 times using a polytron homogenizer at 20,000 rpm for 30 sec. The obtained homogenate was centrifuged (2,000 rpm, 10 min, 4° C.) using a low speed cooling centrifuge. The supernatant was recovered in an ultracentrifugation tube and ultracentrifuged (40,000 rpm, 60 min, 4° C.) using an ultracentrifuge (Beckman, L-90K). To the obtained pellets was added a suspending buffer [50 mM Tris-HCl, 1 mM EDTA, Protease inhibitor Complete (Roche), pH 7.4], and the pellets were suspended by pipetting. The protein concentration of this suspension was measured, diluted to 2 mg/mL to give cellular membrane fractions of CHO-hMelR7 and CHO-hMT2 cells. The membrane fractions were dispensed to 1.5 mL tubes (Eppendorf, #0030120.086) by 100 μL, preserved in a freezer (−80° C.) and used for a binding assay. Protein was quantified using BCA protein assay kit (Pierce) with BSA as the standard.
(§5) (4) Preparation of Membrane Fraction Suspension
(§6) Immediately before use, the membrane fractions of CHO-hMelR7 and CHO-hMT2 cells of the above-mentioned (3) were diluted 20-fold with assay buffer (50 mM Tris-HCl, pH 7.7).
(§7) (5) Preparation of 2-[^125I] Iodomelatonin Solution
(§8) 2-[^125I] Iodomelatonin (#NEX236, PerkinElmer) was diluted with the assay buffer to 400 pM for MT1 and 1 nM for MT2.
The assay buffer (80 μL) of the above-mentioned (4) was added to each well of a 96-well plate (type 3363, Corning). […]

In data set [2] the target is T2, human melatonin 1 receptors (human MT1 receptors) (Homo sapiens, UniProt P48039).
T2 construct: expressed in transfected cells; membrane fraction
T2 sequence (P48039 whole entry): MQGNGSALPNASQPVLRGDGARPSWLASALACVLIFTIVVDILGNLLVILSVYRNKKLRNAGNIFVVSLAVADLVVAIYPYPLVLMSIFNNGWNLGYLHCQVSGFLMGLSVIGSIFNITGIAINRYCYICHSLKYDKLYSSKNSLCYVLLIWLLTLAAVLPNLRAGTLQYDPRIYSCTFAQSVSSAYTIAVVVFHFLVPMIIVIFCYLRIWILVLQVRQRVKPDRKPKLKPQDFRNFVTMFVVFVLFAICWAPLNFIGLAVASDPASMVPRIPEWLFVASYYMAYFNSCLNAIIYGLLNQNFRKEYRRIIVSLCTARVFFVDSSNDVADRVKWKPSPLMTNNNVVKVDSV
Put plainly: Melatonin receptor binding inhibitory test, 2-[125I] Iodomelatonin, MT1. As to conditions: membrane fraction of CHO-hMelR7 cells, 25° C. for 2.5 hr, read-out: binding inhibitory activity as IC50 value for MT1. On the procedure: as §1
(1) Preparation of CHO-hMelR7 Cells expressing Human Melatonin 1 Receptors
A cDNA fragment (SEQ ID NO: 1) encoding full-length of human melatonin 1 receptors (human MT1 receptors) was incorporated into expression vector pAKKO-111H (former name pAKKO1.11H; Biochim Biophys Acta. Vol. 1219(2), pp. 251-259, 1994) to give plasmid pAKKO-hMelR7 for animal cell expression. CHO/dhfr-cells (ATCC, #CRL-9096) were plated at a concentration of 0.3×10^6 cells/dish in a 6 cm culture dish (Becton Dickinson), and cultured under the conditions of 37° C., 5% CO2 for 48 hr. The cells were transfected with pAKKO-hMelR7 plasmid DNA (5 μg) using Cellphect Transfection Kit (Amersham, #27-9268-01). The transfected cells were cultured in Dulbecco's modified Eagle medium (DMEM) (Sigma, #D6046) containing 10% dialyzed FBS (Biowest, #S180D), 1× Non-Essential Amino Acid (Invitrogen, #11140-050) and 50 μg/mL Gentamycin (Invitrogen, #15750-060), and the cell line that stably expressed the plasmid gene was selected. By a receptor binding assay using 2-[^125I] Iodomelatonin, CHO-hMelR7 cell line showing specific binding of 2-[^125I] Iodomelatonin was selected from the obtained clones.
as §2, §3, §4, §5, §6, §7, §8
The assay buffer (80 μL) of the above-mentioned (4) was added to each well of a 96-well plate (type 3363, Corning). Then, a test compound (compound solution diluted with DMSO to 200-fold of the final measurement concentration) was added by 2 μL. […]

The compound `CC(=O)NC[C@@H]1C[C@H]1c1cccc2nn(C)c(F)c12` (relative stereo) [Example 18, trans-N-{[2-(3-fluoro-2-methyl-2H-indazol-4-yl)cyclopropyl]methyl}acetamide] had a melting point of 109 to 111 °C. Moreover, the IC50 in data set [1] was at most 100 nM. The IC50 in data set [2] was at most 100 nM.
Turning to `CC(=O)NC[C@@H]1C[C@H]1c1c(F)ccc2nn(C)cc12` (relative stereo) [Example 23, trans-N-{[2-(5-fluoro-2-methyl-2H-indazol-4-yl)cyclopropyl]methyl}acetamide], the melting point lay in the range of 157 to 159 °C. For the same compound, the IC50 in data set [1] is at most 100 nM. Besides, in data set [2], the IC50 was at most 100 nM.
`CCC(=O)NC[C@@H]1C[C@H]1c1c(F)ccc2nn(C)cc12` (relative stereo) [Example 26, trans-N-{[2-(5-fluoro-2-methyl-2H-indazol-4-yl)cyclopropyl]methyl}propanamide] gave a melting point of 158 to 159 °C. The IC50 in data set [1] is at most 100 nM. Further, the IC50 in data set [2] was at most 100 nM.
`CCCC(=O)NC[C@@H]1C[C@H]1c1cccn2nc(C)cc12` (relative stereo) [Example 45, trans-N-{[2-(2-methylpyrazolo[1,5-a]pyridin-4-yl)cyclopropyl]methyl}butanamide] came in with a melting point of 82 to 84 °C. Also, the IC50 in data set [1] was at most 100 nM. Further, the IC50 in data set [2] is at most 100 nM.
Consider `Cc1cc2c([C@@H]3C[C@H]3CNC(=O)C(F)(F)F)cccn2n1` (relative stereo) [Example 46, trans-2,2,2-trifluoro-N-{[2-(2-methylpyrazolo[1,5-a]pyridin-4-yl)cyclopropyl]methyl}acetamide], for which the melting point was 136 to 138 °C. Moreover, in data set [1], the half-inhibitory concentration (IC50) was at most 100 nM. For the same compound, the IC50 in data set [2] was at most 100 nM.
Take `Cc1cc2c([C@@H]3C[C@H]3CNC(=O)C3CC3)cccn2n1` (relative stereo) [Example 47, trans-N-{[2-(2-methylpyrazolo[1,5-a]pyridin-4-yl)cyclopropyl]methyl}cyclopropanecarboxamide]: the melting point lay in the range of 133 to 135 °C. Besides, the IC50 in data set [1] is at most 100 nM. For the same compound, in data set [2], the IC50 is at most 100 nM.
For the compound `CCNC(=O)NC[C@@H]1C[C@H]1c1cccn2nc(C)cc12` (relative stereo) [Example 51, trans-N-ethyl-N′-{[2-(2-methylpyrazolo[1,5-a]pyridin-4-yl)cyclopropyl]methyl}urea], the melting point is 108 to 110 °C. The IC50 in data set [1] is at most 100 nM. Besides, the IC50 in data set [2] was at most 100 nM.
In turn, `CC(=O)NC[C@H]1C[C@@H]1c1cccc2nn(C)cc12` [Example 10, N-{[(1S,2S)-2-(2-methyl-2H-indazol-4-yl)cyclopropyl]methyl}acetamide] showed a melting point of 145 to 147 °C. Also, in data set [1], the IC50 was at most 100 nM. Further, the IC50 in data set [2] is at most 100 nM.
`CC(=O)NC[C@@H]1C[C@H]1c1cccc2nn(C)cc12` [Example 11, N-{[(1R,2R)-2-(2-methyl-2H-indazol-4-yl)cyclopropyl]methyl}acetamide] registered a melting point of 145 to 147 °C. In addition, the IC50 in data set [1] is at most 100 nM. Besides, in data set [2], the IC50 was at most 100 nM.
For `CCC(=O)NC[C@H]1C[C@@H]1c1cccc2nn(C)cc12` [Example 12, N-{[(1S,2S)-2-(2-methyl-2H-indazol-4-yl)cyclopropyl]methyl}propanamide], the melting point lay within 79 to 80 °C. Also, the IC50 in data set [1] is at most 100 nM. In addition, the IC50 in data set [2] was at most 100 nM.
Take `CCC(=O)NC[C@@H]1C[C@H]1c1cccc2nn(C)cc12` [Example 13, N-{[(1R,2R)-2-(2-methyl-2H-indazol-4-yl)cyclopropyl]methyl}propanamide]: the melting point was in the range of 78 to 80 °C. In addition, the IC50 in data set [1] was at most 100 nM. Also, in data set [2], the IC50 is at most 100 nM.
In the case of `CCn1cc2c(C3CC3CNC(C)=O)cccc2n1` (stereo not drawn) [Example 16, N-{[2-(2-ethyl-2H-indazol-4-yl)cyclopropyl]methyl}acetamide], the melting point was 155 to 159 °C. Besides, the IC50 in data set [1] is at most 100 nM. Further, the IC50 in data set [2] is at most 100 nM.
Consider `CCC(=O)NCC1CC1c1cccc2nn(CC)cc12` (stereo not drawn) [Example 17, N-{[2-(2-ethyl-2H-indazol-4-yl)cyclopropyl]methyl}propanamide], for which the melting point fell in the range of 114 to 115 °C. Also, the IC50 in data set [1] was at most 100 nM. For the same compound, the IC50 in data set [2] is at most 100 nM.
As to `CC(=O)NC[C@@H]1C[C@H]1c1cccc2nn(C)c(F)c12` [Example 19, N-{[(1R,2R)-2-(3-fluoro-2-methyl-2H-indazol-4-yl)cyclopropyl]methyl}acetamide], the melting point is 138 to 139 °C. For the same compound, the IC50 in data set [1] is at most 100 nM. Also, the IC50 in data set [2] is at most 100 nM.
As to `CC(=O)NC[C@H]1C[C@@H]1c1c(F)ccc2nn(C)cc12` [Example 24, N-{[(1S,2S)-2-(5-fluoro-2-methyl-2H-indazol-4-yl)cyclopropyl]methyl}acetamide], the melting point was found to be 120 °C. Moreover, the IC50 in data set [1] was at most 100 nM. Also, in data set [2], the IC50 is at most 100 nM.
As to `CC(=O)NC[C@@H]1C[C@H]1c1c(F)ccc2nn(C)cc12` [Example 25, N-{[(1R,2R)-2-(5-fluoro-2-methyl-2H-indazol-4-yl)cyclopropyl]methyl}acetamide], the melting point was 120 °C. In addition, in data set [1], the IC50 is at most 100 nM. Moreover, in data set [2], the IC50 is at most 100 nM.
